Reference: publication PMC3392449 (Journal of Immunology (Baltimore, Md. : 1950), 2012)

Experiments:
Assay type in all cases: cell-based, human
[1] = system: extract-stimulated PBMC cultures from allergic donors; experiment: IL-5 plus IFN-γ ELISPOT of Bla g extract-expanded PBMC; conditions: share of the region in the total Bla g peptide response (total SFC)
[2] = system: extract-stimulated PBMC cultures from allergic donors (IFN-γ production); experiment: IFN-γ ELISPOT of in vitro expanded PBMC; conditions: donor U00023 (Figure 3), result in words
[3] = system: extract-stimulated PBMC cultures from allergic donors (IL-5 production); experiment: IL-5 ELISPOT of in vitro expanded PBMC; conditions: donor U00023 (Figure 3), result in words

| Sequence | % Total response [1] [%] | IFN-γ response [2] | IL-5 response [3] |
| --- | --- | --- | --- |
| GNQNFLTVFDSTSCN [Region 7] | 0.2 | produced IFN-γ | no IL-5 |
| ISDFRAAIANYHYDA [Region 13] | 8.6 | – | – |
| FAVATITHAAELQRV [Region 5] | 3.5 | produced IFN-γ | no IL-5 |
| PEQIQLLKKAFDAFD [Region 23] | 5.1 | – | associated only with IL-5 production |
